Test results from ChEMBL document CHEMBL5154749 (Eur J Med Chem, 2022).
Calls of active or inactive are those of the source. The calls are words filed in the database; no cut-off is given here.

Experiments:
HT-29 [1] = test: Induction of apoptosis in human HT-29 cells assessed as late apoptotic cells at 1 uM measured after 48 hrs in presence of AZD1390 by Annexin V-FITC/Propidium iodide staining based flow cytometry analysis (reference value: 0.63%); type: functional
LoVo [2] = test: Antitumor activity against human LoVo cells xenografted in NOD/SCID mouse assessed as tumor growth inhibition at 50 mg/kg, po BID for 30 days measured every 2 to 3 days; type: functional; details: 720 h, time 30 day, read-out: TGI
[3] = biological target: T1, Serine/threonine-protein kinase ATR (Homo sapiens, UniProt Q13535); test: Inhibition of ATR signalling in ATM-deficient human LoVo cells assessed as inhibition of Chk1 phosphorylation incubated for 1 hr followed by hydroxyurea addition measured after 4 hrs by Western blot analysis; type: cell-based; details: dose <= 3.0 µM, time 5.0 hrs, DDE = dose-dependent effect
T1 sequence (Q13535 whole entry, looked up): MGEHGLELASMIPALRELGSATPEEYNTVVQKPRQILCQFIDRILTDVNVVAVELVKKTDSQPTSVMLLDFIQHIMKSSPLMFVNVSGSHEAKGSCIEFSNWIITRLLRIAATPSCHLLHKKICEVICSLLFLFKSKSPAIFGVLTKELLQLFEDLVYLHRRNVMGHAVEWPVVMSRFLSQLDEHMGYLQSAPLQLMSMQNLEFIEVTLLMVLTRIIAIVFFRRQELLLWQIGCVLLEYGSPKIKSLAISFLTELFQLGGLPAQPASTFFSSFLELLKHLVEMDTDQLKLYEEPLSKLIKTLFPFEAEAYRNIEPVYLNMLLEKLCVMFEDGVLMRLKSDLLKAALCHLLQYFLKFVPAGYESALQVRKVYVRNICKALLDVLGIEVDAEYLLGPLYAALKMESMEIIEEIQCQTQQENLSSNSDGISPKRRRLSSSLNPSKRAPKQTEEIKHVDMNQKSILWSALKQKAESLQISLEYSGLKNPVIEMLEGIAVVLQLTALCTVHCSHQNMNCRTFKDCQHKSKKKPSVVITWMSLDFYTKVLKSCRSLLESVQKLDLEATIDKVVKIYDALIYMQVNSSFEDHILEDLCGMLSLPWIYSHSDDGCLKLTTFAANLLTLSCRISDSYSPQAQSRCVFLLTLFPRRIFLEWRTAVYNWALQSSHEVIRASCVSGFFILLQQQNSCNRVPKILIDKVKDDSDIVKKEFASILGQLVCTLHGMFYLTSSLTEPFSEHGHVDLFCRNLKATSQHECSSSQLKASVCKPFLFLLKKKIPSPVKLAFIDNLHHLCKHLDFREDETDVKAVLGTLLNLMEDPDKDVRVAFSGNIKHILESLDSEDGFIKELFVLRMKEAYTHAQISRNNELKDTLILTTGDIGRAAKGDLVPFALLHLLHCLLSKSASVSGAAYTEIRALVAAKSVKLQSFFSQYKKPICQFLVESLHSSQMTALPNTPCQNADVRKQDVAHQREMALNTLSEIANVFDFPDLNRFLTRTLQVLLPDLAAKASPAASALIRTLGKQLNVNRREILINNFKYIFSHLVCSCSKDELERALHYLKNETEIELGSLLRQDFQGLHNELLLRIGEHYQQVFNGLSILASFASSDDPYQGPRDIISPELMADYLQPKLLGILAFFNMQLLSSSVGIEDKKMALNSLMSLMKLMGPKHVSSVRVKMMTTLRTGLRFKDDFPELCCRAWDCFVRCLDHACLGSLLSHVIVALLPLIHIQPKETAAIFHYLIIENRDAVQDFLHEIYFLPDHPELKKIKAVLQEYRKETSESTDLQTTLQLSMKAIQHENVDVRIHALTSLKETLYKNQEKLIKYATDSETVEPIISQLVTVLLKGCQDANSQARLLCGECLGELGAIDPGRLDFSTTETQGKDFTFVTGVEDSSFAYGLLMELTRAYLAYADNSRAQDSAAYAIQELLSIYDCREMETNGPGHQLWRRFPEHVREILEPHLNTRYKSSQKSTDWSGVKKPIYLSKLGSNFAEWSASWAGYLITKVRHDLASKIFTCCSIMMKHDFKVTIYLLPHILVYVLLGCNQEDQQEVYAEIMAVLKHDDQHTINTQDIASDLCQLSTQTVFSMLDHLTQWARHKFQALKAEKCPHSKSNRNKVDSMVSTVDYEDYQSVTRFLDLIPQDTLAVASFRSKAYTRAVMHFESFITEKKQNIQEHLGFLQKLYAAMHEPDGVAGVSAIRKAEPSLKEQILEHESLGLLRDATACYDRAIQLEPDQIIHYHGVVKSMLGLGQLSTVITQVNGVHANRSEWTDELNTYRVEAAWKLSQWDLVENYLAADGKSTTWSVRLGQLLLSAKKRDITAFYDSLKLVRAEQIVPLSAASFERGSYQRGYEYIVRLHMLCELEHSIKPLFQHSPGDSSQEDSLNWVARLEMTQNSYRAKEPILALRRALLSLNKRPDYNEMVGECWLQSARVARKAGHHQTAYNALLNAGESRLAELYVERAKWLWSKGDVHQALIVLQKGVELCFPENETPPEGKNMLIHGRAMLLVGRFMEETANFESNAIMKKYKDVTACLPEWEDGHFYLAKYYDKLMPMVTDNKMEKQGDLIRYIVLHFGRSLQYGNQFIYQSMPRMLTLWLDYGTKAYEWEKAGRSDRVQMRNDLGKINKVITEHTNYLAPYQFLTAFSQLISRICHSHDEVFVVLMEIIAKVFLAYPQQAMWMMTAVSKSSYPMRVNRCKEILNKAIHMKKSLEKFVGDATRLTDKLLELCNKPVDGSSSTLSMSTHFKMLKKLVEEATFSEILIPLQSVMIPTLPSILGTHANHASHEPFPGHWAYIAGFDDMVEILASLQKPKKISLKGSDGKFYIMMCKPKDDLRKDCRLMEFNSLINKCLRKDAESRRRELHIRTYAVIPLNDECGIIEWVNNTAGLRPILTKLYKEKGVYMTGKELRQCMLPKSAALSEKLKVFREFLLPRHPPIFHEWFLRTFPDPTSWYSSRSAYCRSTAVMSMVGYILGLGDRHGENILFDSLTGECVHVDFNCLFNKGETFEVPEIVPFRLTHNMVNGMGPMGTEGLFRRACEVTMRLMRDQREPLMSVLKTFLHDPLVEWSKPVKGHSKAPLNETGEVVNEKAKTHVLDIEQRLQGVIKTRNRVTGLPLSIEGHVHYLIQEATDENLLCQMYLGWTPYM

HT-29 [4] = test: Induction of apoptosis in human HT-29 cells assessed as viable cells at 0.3 uM measured after 48 hrs by Annexin V-FITC/Propidium iodide staining based flow cytometry analysis (reference value: 97.01%); type: functional; details: read-out: Activity
HT-29 [5] = test: Induction of apoptosis in human HT-29 cells assessed as viable cells at 1 uM measured after 48 hrs by Annexin V-FITC/Propidium iodide staining based flow cytometry analysis (reference value: 97.01%); type: functional; details: read-out: Activity
LoVo [6] = test: Induction of apoptosis in human LoVo cells deficient in ATM assessed as early apoptotic cells at 0.3 uM measured after 24 hrs by Annexin V-FITC/Propidium iodide staining based flow cytometric analysis (reference value: 4.20%); type: functional
LoVo [7] = test: Induction of DNA damage in human LoVo cells deficient in ATM at 1 uM measured after 3 days by immunofluorescence assay; type: functional, cell-based; details: time 3.0 day
HCT-116 = test: Antiproliferative activity against ATM proficient human HCT-116 cells assessed as reduction in cell viability incubated for 72 hrs by MTT assay; type: functional, cell-based; details: dose 0.001-100 µM, DDE = dose-dependent effect
HT-29 [8] = test: Induction of apoptosis in human HT-29 cells assessed as early apoptotic cells at 0.3 uM measured after 48 hrs by Annexin V-FITC/Propidium iodide staining based flow cytometry analysis (reference value: 1.55%); type: functional
HT-29 [9] = test: Induction of apoptosis in human HT-29 cells assessed as necrotic cells at 3 uM measured after 48 hrs by Annexin V-FITC/Propidium iodide staining based flow cytometry analysis (reference value: 0.73%); type: functional
LoVo [10] = test: Antitumor activity against human LoVo cells xenografted in NOD/SCID mouse assessed as tumor growth inhibition at 100 mg/kg, po BID for 30 days measured every 2 to 3 days; type: functional; details: 720 h, time 30 day, read-out: TGI
[11] = Toxicity in NOD/SCID mouse xenografted with human LoVo cells assessed as body weight loss at 50 to 100 mg/kg, po administered bid for 30 days; type: organism-based; details: in vivo, 720 h, dose 50-100 mg/kg, time 30 day
[12] = Toxicity in NOD/SCID mouse xenografted with human LoVo cells assessed as damage in kidney at 50 to 100 mg/kg, po administered bid for 30 days measured after 2 hrs post last dose by H and E staining method; type: organism-based; details: in vivo, 720 h, dose 50-100 mg/kg, time 30 day
[13] = Clearance in Sprague-Dawley in rat at 5 mg/kg, iv measured at 0.083 to 24 hrs by LC-MS/MS method; type: ADME, organism-based; details: in vivo, time 0.083-24 hrs
[14] = biological target: Serine-protein kinase ATM (Homo sapiens) (UniProt Q13315); test: Activation of ATM signaling in human HT-29 cells proficient in ATM at 1 uM measured after 3 days by immunofluorescence assay; type: cell-based; details: filed as activator, time 3.0 day
[15] = Toxicity in NOD/SCID mouse xenografted with human LoVo cells assessed as damage in lung at 50 to 100 mg/kg, po administered bid for 30 days measured after 2 hrs post last dose by H and E staining method; type: organism-based; details: in vivo, 720 h, dose 50-100 mg/kg, time 30 day
MCF7 = test: Antiproliferative activity against ATM proficient human MCF7 cells assessed as reduction in cell viability incubated for 72 hrs by MTT assay; type: functional, cell-based; details: dose 0.001-100 µM, DDE = dose-dependent effect
LoVo [16] = test: Induction of apoptosis in human LoVo cells deficient in ATM assessed as necrotic cells at 1 uM measured after 24 hrs by Annexin V-FITC/Propidium iodide staining based flow cytometry analysis (reference value: 0.84%); type: functional
[17] = Tmax in Sprague-Dawley rat at 5 mg/kg, iv measured at 0.083 to 24 hrs by LC-MS/MS method; type: ADME, organism-based; details: in vivo, time 0.083-24 hrs
HT-29 [18] = test: Induction of apoptosis in human HT-29 cells assessed as early apoptotic cells at 0.3 uM measured after 48 hrs in presence of AZD1390 by Annexin V-FITC/Propidium iodide staining based flow cytometry analysis (reference value: 3.81%); type: functional
[19] = Half life in Sprague-Dawley rat at 10 mg/kg, po measured at 0.083 to 24 hrs by LC-MS/MS method; type: ADME, organism-based; details: in vivo, time 0.083-24 hrs
HT-29 [20] = test: Induction of apoptosis in human HT-29 cells assessed as late apoptotic cells at 0.3 uM measured after 48 hrs by Annexin V-FITC/Propidium iodide staining based FACS cytometry analysis (reference value: 0.71%); type: functional
[21] = Cmax in Sprague-Dawley rat at 10 mg/kg, po measured at 0.083 to 24 hrs by LC-MS/MS method; type: ADME, organism-based; set-up: time 0.083-24 hrs, dose 10 mg/kg, route po; details: in vivo
LoVo [22] = test: Induction of apoptosis in human LoVo cells deficient in ATM assessed as viable cells at 3 uM measured after 24 hrs by Annexin V-FITC/Propidium iodide staining based flow cytometry analysis (reference value: 91.64%); type: functional; details: read-out: Activity
[23] = biological target: T1, Serine/threonine-protein kinase ATR; test: In vivo inhibition of ATR in human LoVo cells xenografted in NOD/SCID mouse assessed as inhibition of Chk1 phosphorylation at 50 to 100 mg/kg, po administered twice a day for 30 days by Western blot analysis; details: dose 50-100 mg/kg, time 30.0 day
LoVo [24] = test: Antimigratory activity in human LoVo cells assessed as suppression of cell migration measured at up to 1 uM by wound healing assay; type: functional, cell-based; details: time <= 48.0 hrs, TDE = time-dependent effect
HT-29 [25] = test: Induction of apoptosis in human HT-29 cells assessed as early apoptotic cells at 1 uM measured after 48 hrs by Annexin V-FITC/Propidium iodide staining based flow cytometry analysis (reference value: 1.55%); type: functional
[26] = Oral bioavailability in Sprague-Dawley rat at 10 mg/kg measured at 0.083 to 24 hrs by LC-MS/MS method; type: ADME, organism-based; details: in vivo, time 0.083-24 hrs
HT-29 [27] = test: Induction of apoptosis in human HT-29 cells assessed as necrotic cells at 0.3 uM measured after 48 hrs in presence of AZD1390 by Annexin V-FITC/Propidium iodide staining based flow cytometry analysis (reference value: 0.23%); type: functional
HT-29 [28] = test: Induction of apoptosis in human HT-29 cells assessed as early apoptotic cells at 3 uM measured after 48 hrs in presence of AZD1390 by Annexin V-FITC/Propidium iodide staining based flow cytometry analysis (reference value: 3.81%); type: functional
LoVo [29] = test: Induction of apoptosis in human LoVo cells deficient in ATM assessed as early apoptotic cells at 3 uM measured after 24 hrs by Annexin V-FITC/Propidium iodide staining based flow cytometry analysis (reference value: 4.20%); type: functional

inhibition [3]: Dde | clearance [13]: 26.5 mL/min/kg | Activity [14]: Active | Tmax [17]: 4.8 min | half-life [19]: 68.4 min | Cmax [21]: 895 ng/mL | Activity [23]: Active | bioavailability [26]: 43.1%
SMILES: C[C@@H]1COCCN1c1nc(-c2cccc3[nH]ccc23)nc2ccc(-c3ccnn3C)cc12
Activity (HT-29 [1]): 9.54% | inhibition in vivo at 50 mg/kg (LoVo [2]): 50% | viability at 0.3 µM (HT-29 [4]): 95.4% | viability at 1 µM (HT-29 [5]): 94.7% | Activity (LoVo [6]): 24.04% | Activity (LoVo [7]): Active | Activity (HCT-116): Dde | Activity (HT-29 [8]): 1.47% | Activity (HT-29 [9]): 1.71% | inhibition in vivo at 100 mg/kg (LoVo [10]): 72.8% | Activity [11]: Non-Toxic | Activity [12]: Non-Toxic | Activity [15]: Non-Toxic | Activity (MCF7): Dde | Activity (LoVo [16]): 2.39% | Activity (HT-29 [18]): 7.23% | Activity (HT-29 [20]): 1.51% | viability at 3 µM (LoVo [22]): 41.2% | Activity (LoVo [24]): Tde | Activity (HT-29 [25]): 2.32% | Activity (HT-29 [27]): 3.91% | Activity (HT-29 [28]): 15.88% | Activity (LoVo [29]): 27.07%
